According to patent US9765056B2, “Indole and pyrrole compounds, a process for their preparation and pharmaceutical compositions containing them” (LES LABORATOIRES SERVIER, priority 2013, dated 2017):
Structures can show the parent of a compound that is named as a salt.

Assays:
Bcl-2 protein = Bcl-2 protein (histag-Bcl-2, UniProtKB P10415) (Homo sapiens (Human), UniProt P10415); assay: Inhibition of Bcl-2 by the fluorescence polarisation technique; assay type: binding; conditions: fluorescence polarisation test; method A, or method B where underlined (underlining not visible); read-out: IC50 (nM) Bcl-2 FP
Sequence of Bcl-2 protein (P10415 whole entry): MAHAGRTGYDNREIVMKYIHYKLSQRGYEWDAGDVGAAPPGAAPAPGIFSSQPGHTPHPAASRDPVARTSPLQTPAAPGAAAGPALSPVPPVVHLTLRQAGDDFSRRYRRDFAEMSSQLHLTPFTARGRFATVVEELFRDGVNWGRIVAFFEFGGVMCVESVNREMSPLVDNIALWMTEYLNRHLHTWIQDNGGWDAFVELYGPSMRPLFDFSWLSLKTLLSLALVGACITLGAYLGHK
Excerpt: Inhibition of Bcl-2 by the fluorescence polarisation technique

[1] = system: RS4;11 leukaemia tumour line; assay: In vitro cytotoxicity, Microculture Tetrazolium Assay (MTT); assay type: cell-based; conditions: Homo sapiens; RS4;11 cells, 48 hours exposure
Experimental: The cytotoxicity studies were carried out on the RS4;11 leukaemia tumour line.
The cells are distributed onto microplates and exposed to the test compounds for 48 hours. The cell viability is then quantified by a colorimetric assay, the Microculture Tetrazolium Assay (Cancer Res., 1987, 47, 939-942).

| Compound | IC50 (Bcl-2 protein) | IC50 [1] |
| --- | --- | --- |
| CC(C)c1ccc(N(C(=O)c2cn(-c3cc4c(cc3C(=O)N3Cc5ccccc5C[C@H]3CN3CCN(C)CC3)OCO4)c3ccccc23)c2ccc(O)c(Cl)c2)cc1 [Example 64, N-(3-Chloro-4-hydroxyphenyl)-1-(6-{[(3S)-3-[(4-methylpiperazin-1-yl)methyl]-3,4-dihydroisoquinolin-2(1H)-yl]carbonyl}-1,3-benzodioxol-5-yl)-N-[4-(propan-2-yl)phenyl]-1H-indole-3-carboxamide hydrochloride] | 296 nM | 1360 nM |
| CN1CCN(C[C@@H]2Cc3ccccc3CN2C(=O)c2ccc(Br)cc2-n2cc(C(=O)N(c3ccc(O)cc3)c3ccc4[nH]ccc4c3)c3ccccc32)CC1 [Example 48, 1-(5-Bromo-2-{[(3S)-3-[(4-methylpiperazin-1-yl)methyl]-3,4-dihydroisoquinolin-2(1H)-yl]carbonyl}phenyl)-N-(4-hydroxyphenyl)-N-(1H-indol-5-yl)-1H-indole-3-carboxamide] | 10.5 nM | 93.9 nM |
| Cc1cc(C(=O)N(c2ccc(O)cc2)c2ccc3c(c2)CCN3C)cn1-c1cc2c(cc1C(=O)N1Cc3ccccc3C[C@H]1C)OCO2 [Example 115, N-(4-Hydroxyphenyl)-5-methyl-N-(1-methyl-2,3-dihydro-1H-indol-5-yl)-1-(6-{[(3R)-3-methyl-3,4-dihydroisoquinolin-2(1H)-yl]carbonyl}-1,3-benzodioxol-5-yl)-1H-pyrrole-3-carboxamide hydrochloride] | 14.5 nM | 272 nM |
| Cc1ccc(N(C(=O)c2cn(-c3cc4c(cc3C(=O)N3Cc5ccccc5C[C@H]3CN3CCN(C)CC3)OCO4)c3ccccc23)c2ccc(O)c(Cl)c2)cc1 [Example 63, N-(3-Chloro-4-hydroxyphenyl)-N-(4-methylphenyl)-1-(6-{[(3S)-3-[(4-methylpiperazin-1-yl)methyl]-3,4-dihydroisoquinolin-2(1H)-yl]carbonyl}-1,3-benzodioxol-5-yl)-1H-indole-3-carboxamide hydrochloride] | 168 nM | 1510 nM |
| Cc1cc(C(=O)N(c2ccccc2)c2ccc(O)c(Cl)c2)cn1-c1cc(Cl)ccc1C(=O)N1Cc2ccccc2C[C@H]1CN1CCN(C)CC1 [Example 27, N-(3-Chloro-4-hydroxyphenyl)-1-(5-chloro-2-{[(3S)-3-[(4-methylpiperazin-1-yl)methyl]-3,4-dihydroisoquinolin-2(1H)-yl]carbonyl}phenyl)-5-methyl-N-phenyl-1H-pyrrole-3-carboxamide hydrochloride] | 20.5 nM | 479 nM |
| CN(C)C[C@@H]1Cc2ccccc2CN1C(=O)c1ccc(Cl)cc1-n1cc(C(=O)N(c2ccccc2)c2ccc(O)cc2)c2ccccc21 [Example 179, 1-{5-Chloro-2-[(3S)-3-[(dimethylamino)methyl]-1,2,3,4-tetrahydroisoquinoline-2-carbonyl]phenyl}-N-(4-hydroxyphenyl)-N-phenyl-1H-indole-3-carboxamide hydrochloride] | 18.1 nM | 886 nM |
| CN1CCN(C[C@@H]2Cc3ccccc3CN2C(=O)c2cc3c(cc2-n2cc(C(=O)N(c4ccc(O)cc4)c4ccc5[nH]ccc5c4)c4cc(Cl)ccc42)OCO3)CC1 [Example 88, 5-Chloro-N-(4-hydroxyphenyl)-N-(1H-indol-5-yl)-1-(6-{[(3S)-3-[(4-methylpiperazin-1-yl)methyl]-3,4-dihydroisoquinolin-2(1H)-yl]carbonyl}-1,3-benzodioxol-5-yl)-1H-indole-3-carboxamide] | 19.6 nM | 541 nM |
| Cc1ccc(N(C(=O)c2cn(-c3cc(Br)ccc3C(=O)N3Cc4ccccc4C[C@H]3CN3CCN(C)CC3)c3ccccc23)c2ccc(O)cc2)cc1 [Example 57, 1-(5-Bromo-2-{[(3S)-3-[(4-methylpiperazin-1-yl)methyl]-3,4-dihydroisoquinolin-2(1H)-yl]carbonyl}phenyl)-N-(4-hydroxyphenyl)-N-(4-methylphenyl)-1H-indole-3-carboxamide] | 13.4 nM | 267 nM |
| NC[C@@H]1Cc2ccccc2CN1C(=O)c1cc(N)ccc1-n1nc(C(=O)N(c2ccccc2)c2ccccc2)c2ccccc21 [Example 138, 1-{4-Amino-2-[(3S)-3-(aminomethyl)-1,2,3,4-tetrahydroisoquinoline-2-carbonyl]phenyl}-N,N-diphenyl-1H-indazole-3-carboxamide] | 52.2 nM | 2020 nM |
| NC[C@@H]1Cc2ccccc2CN1C(=O)c1ccccc1-n1nc(C(=O)N(c2ccccc2)c2ccccc2)c2ccc(C(=O)O)cc21 [Example 133, 1-{2-[(3S)-3-(Aminomethyl)-1,2,3,4-tetrahydroisoquinoline-2-carbonyl]-phenyl}-3-(diphenylcarbamoyl)-1H-indazole-6-carboxylic acid] | 841 nM |  |

Continued, in another order:

| IC50 (Bcl-2 protein) | Compound | IC50 [1] |
| --- | --- | --- |
| 10.4 nM | COc1cc(-n2nc(C(=O)N(c3ccccc3)c3ccccc3)c3ccccc32)c(C(=O)N2Cc3ccccc3C[C@H]2CN)cc1O [Example 135, 1-{2-[(3S)-3-(Aminomethyl)-1,2,3,4-tetrahydroisoquinoline-2-carbonyl]-4-hydroxy-5-methoxyphenyl}-N,N-diphenyl-1H-indazole-3-carboxamide] | 461 nM |
| 6.8 nM | Cc1cc(C(=O)N(c2ccc(O)cc2)c2ccc3[nH]ccc3c2)cn1-c1cc(Br)ccc1C(=O)N1Cc2ccccc2C[C@H]1CN1CCN(C2CCCC2)CC1 [Example 80, 1-(5-Bromo-2-{[(3S)-3-[(4-cyclopentylpiperazin-1-yl)methyl]-3,4-dihydroisoquinolin-2(1H)-yl]carbonyl}phenyl)-N-(4-hydroxyphenyl)-N-(1H-indol-5-yl)-5-methyl-1H-pyrrole-3-carboxamide] | 120 nM |
| 7.1 nM | CN1CCN(C[C@@H]2Cc3ccccc3CN2C(=O)c2ccc(Cl)cc2-n2cc(C(=O)N(c3ccc(O)cc3)c3ccc(F)cc3)c3ccccc32)CC1 [Example 75, 1-(5-Chloro-2-{[(3S)-3-[(4-methylpiperazin-1-yl)methyl]-3,4-dihydroisoquinolin-2(1H)-yl]carbonyl}phenyl)-N-(4-fluorophenyl)-N-(4-hydroxyphenyl)-1H-indole-3-carboxamide] | 184 nM |
| 6.9 nM | CC(C)n1ccc2cc(N(C(=O)c3cn(-c4cc5c(cc4C(=O)N4Cc6ccccc6C[C@H]4CN4CCN(C)CC4)OCO5)c4ccccc34)c3ccc(O)cc3)ccc21 [Example 100, N-(4-Hydroxyphenyl)-1-(6-{[(3S)-3-[(4-methylpiperazin-1-yl)methyl]-3,4-dihydroisoquinolin-2(1H)-yl]carbonyl}-1,3-benzodioxol-5-yl)-N-[1-(propan-2-yl)-1H-indol-5-yl]-1H-indole-3-carboxamide] | 43.4 nM |
| 4.2 nM | Cc1ccc(N(C(=O)c2cn(-c3cc(Cl)ccc3C(=O)N3Cc4ccccc4C[C@H]3CN3CCN(C)CC3)c3ccccc23)c2ccc(O)cc2)cc1 [Example 74, 1-(5-Chloro-2-{[(3S)-3-[(4-methylpiperazin-1-yl)methyl]-3,4-dihydroisoquinolin-2(1H)-yl]carbonyl}phenyl)-N-(4-hydroxyphenyl)-N-(4-methylphenyl)-1H-indole-3-carboxamide] | 162 nM |
| 5.1 nM | Cc1cc(C(=O)N(c2ccc(O)cc2)c2ccc(Cl)cc2)cn1-c1cc(Cl)ccc1C(=O)N1Cc2ccccc2C[C@H]1CN1CCN(C)CC1 [Example 65, 1-(5-Chloro-2-{[(3S)-3-[(4-methylpiperazin-1-yl)methyl]-3,4-dihydroisoquinolin-2(1H)-yl]carbonyl}phenyl)-N-(4-chlorophenyl)-N-(4-hydroxyphenyl)-5-methyl-1H-pyrrole-3-carboxamide] | 130 nM |
| 3.7 nM | CN1CCN(C[C@@H]2Cc3ccccc3CN2C(=O)c2cc(F)c(Cl)cc2-n2cc(C(=O)N(c3ccc(O)cc3)c3ccc4c(ccn4C)c3)c3ccccc32)CC1 [Example 78, 1-(5-Chloro-4-fluoro-2-{[(3S)-3-[(4-methylpiperazin-1-yl)methyl]-3,4-dihydroisoquinolin-2(1H)-yl]carbonyl}phenyl)-N-(4-hydroxyphenyl)-N-(1-methyl-1H-indol-5-yl)-1H-indole-3-carboxamide hydrochloride] | 81.4 nM |
| 5.9 nM | Cc1cc(C(=O)N(c2ccc(O)cc2)c2ccc3c(ccn3C)c2)cn1-c1cc2c(cc1C(=O)N1Cc3ccccc3C[C@H]1CN1CCOCC1)CCO2 [Example 118, N-(4-Hydroxyphenyl)-5-methyl-N-(1-methyl-1H-indol-5-yl)-1-(5-{[(3S)-3-(morpholin-4-ylmethyl)-3,4-dihydroisoquinolin-2(1H)-yl]carbonyl}-2,3-dihydro-1-benzofuran-6-yl)-1H-pyrrole-3-carboxamide] | 114 nM |
| 7.6 nM | Cc1cc(C(=O)N(c2ccc(O)cc2)c2ccc3c(ccn3C)c2)cn1-c1cc2c(cc1C(=O)N1Cc3ccccc3C[C@H]1CN1CCOCC1)CCC2 [Example 117, N-(4-Hydroxyphenyl)-5-methyl-N-(1-methyl-1H-indol-5-yl)-1-(6-{[(3S)-3-(morpholin-4-ylmethyl)-3,4-dihydroisoquinolin-2(1H)-yl]carbonyl}-2,3-dihydro-1H-inden-5-yl)-1H-pyrrole-3-carboxamide hydrochloride] | 193 nM |
| 8.3 nM | CN1CCN(C[C@@H]2Cc3ccccc3CN2C(=O)c2cc(O)c(O)cc2-n2cc(C(=O)N(c3ccccc3)c3ccc(O)cc3)c3ccccc32)CC1 [Example 183, 1-{4,5-Dihydroxy-2-[(3S)-3-[(4-methylpiperazin-1-yl)methyl]-1,2,3,4-tetrahydroisoquinoline-2-carbonyl]phenyl}-N-(4-hydroxyphenyl)-N-phenyl-1H-indole-3-carboxamide] |  |
